The target of one assay is T1, Caspase-6 (Homo sapiens, UniProt P55212).
T1 sequence (P55212 whole entry): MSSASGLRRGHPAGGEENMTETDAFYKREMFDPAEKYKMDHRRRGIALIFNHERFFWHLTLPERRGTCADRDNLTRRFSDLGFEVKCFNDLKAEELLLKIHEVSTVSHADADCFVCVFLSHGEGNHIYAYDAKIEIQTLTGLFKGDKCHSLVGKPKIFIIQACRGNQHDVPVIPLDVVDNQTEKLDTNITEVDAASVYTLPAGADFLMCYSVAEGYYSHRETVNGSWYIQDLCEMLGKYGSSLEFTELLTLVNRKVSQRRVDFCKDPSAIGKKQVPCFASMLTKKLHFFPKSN
Briefly: inhibition of CASP6 peptide cleavage – biochemical, VEID-R110 fluorescence, cherry-pick, dose response (AID 720632).

Assay [1] addresses T2, Carboxy-terminal domain RNA polymerase II polypeptide A small phosphatase 1 (Homo sapiens, UniProt Q9GZU7).
T2 sequence (Q9GZU7 whole entry): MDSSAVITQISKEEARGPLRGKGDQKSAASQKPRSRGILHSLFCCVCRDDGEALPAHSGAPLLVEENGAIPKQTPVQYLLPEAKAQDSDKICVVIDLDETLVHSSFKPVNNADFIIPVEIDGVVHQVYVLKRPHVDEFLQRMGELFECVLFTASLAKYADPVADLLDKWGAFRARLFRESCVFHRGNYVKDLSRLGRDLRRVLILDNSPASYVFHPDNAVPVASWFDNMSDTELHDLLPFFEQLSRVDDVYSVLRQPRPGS
Briefly: CTDSP1 inhibitors, concentration-response, biochemical, absorbance readout, ultra-high-throughput screen actives (AID 540297). The format is functional.

Assay [2] deals with T3, Ubiquitin-conjugating enzyme E2 N (Homo sapiens, UniProt P61088).
T3 sequence (P61088 whole entry): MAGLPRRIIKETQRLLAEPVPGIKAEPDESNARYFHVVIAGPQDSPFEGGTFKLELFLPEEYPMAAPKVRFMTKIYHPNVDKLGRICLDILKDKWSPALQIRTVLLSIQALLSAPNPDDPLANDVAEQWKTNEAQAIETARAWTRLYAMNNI
The format is functional.

In the next assay the target is Nonstructural protein 1 (Influenza A virus, UniProt Q194T2). Type of assay: functional, Influenza A virus (A/California/07/2009(H1N1)).
Assay [3] concerns the target T4, Lysine-specific demethylase 4C (Homo sapiens, UniProt Q9H3R0).
T4 sequence (Q9H3R0 whole entry): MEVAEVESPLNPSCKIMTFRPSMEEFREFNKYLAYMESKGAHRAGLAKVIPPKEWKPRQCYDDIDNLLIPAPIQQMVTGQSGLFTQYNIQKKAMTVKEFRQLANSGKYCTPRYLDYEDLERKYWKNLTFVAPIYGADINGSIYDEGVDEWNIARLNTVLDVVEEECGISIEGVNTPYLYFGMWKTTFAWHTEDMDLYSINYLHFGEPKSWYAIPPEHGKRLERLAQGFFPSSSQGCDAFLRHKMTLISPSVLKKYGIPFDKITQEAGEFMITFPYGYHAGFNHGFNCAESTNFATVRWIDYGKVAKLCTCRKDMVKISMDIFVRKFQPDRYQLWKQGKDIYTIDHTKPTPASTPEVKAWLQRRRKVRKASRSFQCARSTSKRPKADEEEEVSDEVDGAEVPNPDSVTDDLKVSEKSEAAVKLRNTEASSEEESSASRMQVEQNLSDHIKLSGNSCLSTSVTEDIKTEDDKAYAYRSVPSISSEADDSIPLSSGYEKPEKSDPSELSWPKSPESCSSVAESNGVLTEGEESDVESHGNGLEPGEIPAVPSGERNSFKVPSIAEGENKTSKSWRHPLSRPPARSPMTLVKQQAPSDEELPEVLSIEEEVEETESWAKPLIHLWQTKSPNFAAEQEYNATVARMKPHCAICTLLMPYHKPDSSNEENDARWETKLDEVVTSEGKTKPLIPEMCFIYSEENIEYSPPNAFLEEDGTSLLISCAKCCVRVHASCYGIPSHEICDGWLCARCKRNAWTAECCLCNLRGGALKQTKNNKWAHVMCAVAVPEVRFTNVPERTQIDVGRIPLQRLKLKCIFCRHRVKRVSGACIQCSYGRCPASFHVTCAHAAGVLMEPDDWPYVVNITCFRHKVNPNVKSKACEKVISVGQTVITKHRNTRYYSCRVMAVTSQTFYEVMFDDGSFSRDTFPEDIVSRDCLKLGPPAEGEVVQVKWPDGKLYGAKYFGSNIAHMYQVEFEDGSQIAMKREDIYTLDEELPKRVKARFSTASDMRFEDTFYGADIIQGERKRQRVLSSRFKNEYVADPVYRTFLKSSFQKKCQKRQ
Nature of the assay: inhibition of JMJD2C H3K9me3 demethylation – biochemical, DELFIA europium, cherry-picked samples, dose response (AID 488835). The format is functional.

Assay [4] is described as follows: cells. Type of assay: functional, cell-based.
Assay [5] deals with Voltage-dependent T-type calcium channel subunit alpha-1H (Homo sapiens, UniProt O95180). Type of assay: functional.
Assay [6] in a line: cells. The format is functional, cell-based. The source holds these as a separate data set.
Assay [7] in a line: microbe, parasite or virus in culture. The format is functional. The note with it: Mycobacterium tuberculosis.
A short description of assay [8]: viability of uninfected HEp-2 cells – cell-based, HTS, cytotoxicity control for RSV inhibitor project, dose response (AID 2410). Type of assay: functional. The note with it: human respiratory syncytial virus.
Assay [9] in a line: loss of viability in HepG2 cells – cell-based, CellTiter-Glo, cherry-picked, cytotoxicity control for Shn3 inhibitor project, dose response (AID 624134). The format is functional. In general terms: ATP-based viability assays read luminescence as a measure of living cells.
Assay [10] in a line: non-specific 3'UTR reporter inhibition in Clone20-Shn3RL – cell-based, Renilla luciferase, cherry-picked, counter-screen for Shn3 inhibitor project, dose response (AID 624133). The format is functional. Background: Counterscreens check selectivity or assay interference.
Assay [11] can be described thus: reduction of Shn3 3'UTR-driven luciferase in osteoblasts – cell-based, Clone20 osteoblasts, firefly luciferase, cherry-picked, dose response (AID 624132).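 Further: firefly luciferase luminescence from reporter carrying the Shn3 3'UTR in osteoblasts.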 The format is functional.
The test system of a further assay is Vero. Briefly: cells. Type of assay: functional. The note with it: Chlorocebus sabaeus.
A short description of assay [12]: P. falciparum Dd2 growth inhibitors, dose response, SYBR Green, cherry-picked samples (AID 1159567). The format is functional, cell-based.
Assay [13] in a line: toxicity to human hepatoma HepG2 cells – cell-based, cherry-picked samples, cytotoxicity control, dose response (AID 1159577). Type of assay: functional.
For a further assay, the target named is Paired box protein Pax-8 (Homo sapiens, UniProt Q06710). Nature of the assay: PAX8 transcriptional activity inhibition in RMG-I – RMG-I cells, luciferase, cherry-pick, dose response (AID 687027).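 Further: luciferase reporter driven by Pax8 target thyroperoxidase promoter measured by SteadyGlo luminescence.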 Type of assay: functional, cell-based.
A short description of assay [14]: cells. The format is functional.
Assay [15] is described as follows: Luminescence Cell-Based Dose Retest to Confirm Inhibitors of Cancer Stem Cells. [Related pubchem assays (depositor defined):AID2717, AID2721]. Type of assay: functional. The note with it: Homo sapiens.

The results in this text go back to ChEMBL document CHEMBL1201862, “PubChem BioAssay data set” (2004).

Calls of active or inactive are those of the source.

Sequence of Voltage-dependent T-type calcium channel subunit alpha-1H (O95180 whole entry): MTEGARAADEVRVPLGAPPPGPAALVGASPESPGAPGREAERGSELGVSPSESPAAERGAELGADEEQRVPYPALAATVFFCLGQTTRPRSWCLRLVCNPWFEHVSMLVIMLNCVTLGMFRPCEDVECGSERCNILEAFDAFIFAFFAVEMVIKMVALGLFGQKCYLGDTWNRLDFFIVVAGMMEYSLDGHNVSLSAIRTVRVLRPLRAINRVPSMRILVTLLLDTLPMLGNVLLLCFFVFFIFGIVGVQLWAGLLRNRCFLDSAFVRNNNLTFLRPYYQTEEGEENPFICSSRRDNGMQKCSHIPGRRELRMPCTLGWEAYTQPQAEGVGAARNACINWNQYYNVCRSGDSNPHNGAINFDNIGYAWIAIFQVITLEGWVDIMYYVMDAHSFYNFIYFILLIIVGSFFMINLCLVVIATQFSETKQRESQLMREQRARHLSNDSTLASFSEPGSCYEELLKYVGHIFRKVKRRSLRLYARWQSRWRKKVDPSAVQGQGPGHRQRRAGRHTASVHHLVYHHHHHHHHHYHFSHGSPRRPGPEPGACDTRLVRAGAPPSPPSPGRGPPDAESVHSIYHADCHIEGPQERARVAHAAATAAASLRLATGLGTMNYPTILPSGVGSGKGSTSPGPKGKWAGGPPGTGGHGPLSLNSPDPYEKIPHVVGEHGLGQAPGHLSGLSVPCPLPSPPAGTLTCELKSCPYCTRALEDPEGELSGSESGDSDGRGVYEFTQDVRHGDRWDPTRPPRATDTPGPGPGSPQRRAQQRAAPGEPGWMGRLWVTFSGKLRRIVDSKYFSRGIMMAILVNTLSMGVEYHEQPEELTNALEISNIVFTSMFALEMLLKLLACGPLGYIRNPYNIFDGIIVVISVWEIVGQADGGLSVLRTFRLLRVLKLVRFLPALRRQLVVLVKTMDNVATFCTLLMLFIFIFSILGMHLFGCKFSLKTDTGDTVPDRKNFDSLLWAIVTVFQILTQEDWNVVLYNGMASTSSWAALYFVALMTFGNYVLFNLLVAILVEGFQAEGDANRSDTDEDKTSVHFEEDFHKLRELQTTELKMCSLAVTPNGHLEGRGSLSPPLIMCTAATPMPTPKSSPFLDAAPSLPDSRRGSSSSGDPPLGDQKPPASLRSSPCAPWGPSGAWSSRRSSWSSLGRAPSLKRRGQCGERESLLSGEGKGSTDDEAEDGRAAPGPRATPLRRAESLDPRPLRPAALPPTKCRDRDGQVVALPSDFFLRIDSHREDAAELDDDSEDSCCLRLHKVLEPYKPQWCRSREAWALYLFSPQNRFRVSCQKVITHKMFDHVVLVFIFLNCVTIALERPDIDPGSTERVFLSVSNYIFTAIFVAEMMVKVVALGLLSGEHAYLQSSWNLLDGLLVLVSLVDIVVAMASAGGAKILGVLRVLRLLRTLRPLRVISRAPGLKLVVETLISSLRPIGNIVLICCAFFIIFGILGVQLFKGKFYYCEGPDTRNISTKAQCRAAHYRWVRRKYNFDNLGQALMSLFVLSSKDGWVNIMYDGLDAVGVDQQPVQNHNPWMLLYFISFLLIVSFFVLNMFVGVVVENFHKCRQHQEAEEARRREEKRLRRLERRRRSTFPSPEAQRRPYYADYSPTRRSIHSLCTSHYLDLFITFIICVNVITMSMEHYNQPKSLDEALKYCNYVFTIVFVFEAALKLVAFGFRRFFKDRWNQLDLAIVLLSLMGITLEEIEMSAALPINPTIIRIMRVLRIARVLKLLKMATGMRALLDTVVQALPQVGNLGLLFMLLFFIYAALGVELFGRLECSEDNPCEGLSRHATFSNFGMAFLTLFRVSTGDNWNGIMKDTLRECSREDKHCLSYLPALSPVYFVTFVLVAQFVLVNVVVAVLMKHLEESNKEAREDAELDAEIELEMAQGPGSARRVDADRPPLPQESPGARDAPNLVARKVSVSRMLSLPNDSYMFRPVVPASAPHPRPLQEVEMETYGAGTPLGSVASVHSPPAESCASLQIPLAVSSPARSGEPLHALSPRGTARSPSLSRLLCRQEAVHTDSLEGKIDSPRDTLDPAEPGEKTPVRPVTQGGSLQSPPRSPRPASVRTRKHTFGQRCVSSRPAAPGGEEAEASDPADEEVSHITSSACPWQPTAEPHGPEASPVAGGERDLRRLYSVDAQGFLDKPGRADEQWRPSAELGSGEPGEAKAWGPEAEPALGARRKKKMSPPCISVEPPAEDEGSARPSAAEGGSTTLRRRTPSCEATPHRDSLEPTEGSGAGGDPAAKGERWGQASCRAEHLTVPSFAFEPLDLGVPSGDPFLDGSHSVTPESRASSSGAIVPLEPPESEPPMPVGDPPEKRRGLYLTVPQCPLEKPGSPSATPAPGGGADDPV
Sequence of Paired box protein Pax-8 (Q06710 whole entry): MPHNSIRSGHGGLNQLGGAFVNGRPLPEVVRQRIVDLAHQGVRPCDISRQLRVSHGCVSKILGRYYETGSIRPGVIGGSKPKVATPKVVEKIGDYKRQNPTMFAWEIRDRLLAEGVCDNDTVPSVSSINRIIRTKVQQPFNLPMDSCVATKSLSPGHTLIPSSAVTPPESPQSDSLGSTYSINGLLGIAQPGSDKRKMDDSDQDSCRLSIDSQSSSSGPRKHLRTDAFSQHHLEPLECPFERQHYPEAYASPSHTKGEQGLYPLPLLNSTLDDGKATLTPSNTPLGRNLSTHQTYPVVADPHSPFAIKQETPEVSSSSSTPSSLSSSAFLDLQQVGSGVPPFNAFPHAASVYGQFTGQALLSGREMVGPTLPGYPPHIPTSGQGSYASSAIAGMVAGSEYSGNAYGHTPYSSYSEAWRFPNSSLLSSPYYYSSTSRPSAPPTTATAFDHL
Sequence of Nonstructural protein 1 (Q194T2 whole entry): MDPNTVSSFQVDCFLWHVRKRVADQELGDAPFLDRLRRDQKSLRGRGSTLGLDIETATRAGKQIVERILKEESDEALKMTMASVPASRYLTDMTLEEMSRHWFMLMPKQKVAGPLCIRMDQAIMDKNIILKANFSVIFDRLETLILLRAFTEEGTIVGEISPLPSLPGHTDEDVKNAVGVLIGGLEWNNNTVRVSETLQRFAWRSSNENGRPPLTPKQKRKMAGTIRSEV

On to `O=C(O)C1C2C=CC(C2)C1C(=O)Nc1ccccc1Br` (stereo unspecified), for which the AC50 – broadly, the concentration at which the activity in the assay is half-maximal – on Caspase-6 was 6.78 µM (active). The IC50 (in general, the point on the concentration scale where inhibition reaches its midpoint) in [1] is 16.7 µM (active).
For `COCCCNC(=S)NNC(=O)c1ccccn1`, the IC50 is > 20 µM (inactive) in assay [2] and 2.32 µM (active) on Nonstructural protein 1. In addition, the concentration at half-maximal activity (AC50) in assay [3] is 24.1 µM (active).
Take `CCCCOC(=O)n1c(=O)oc2cc(S(=O)(=O)N3CCCCC3)ccc21`: the figures for the EC50 (in “cells [4]”; in assay [5]; in “cells [6]”) were > 350 µM (not active), 4.48 µM (active) and > 350 µM (not active), respectively.
For the compound `O=C(CCSc1ccc(Cl)c(Cl)c1)NC12CC3CC(CC(C3)C1)C2`, the EC50 (as a rule, the concentration that produces a half-maximal response) in assay [5] is 5.57 µM (active).
Turning to `CCOC(=O)c1[nH]c2ccc(F)cc2c1NC(=O)CN1CCN(C/C=C/c2ccccc2)CC1`, the CC50 in assay [7] is 22.4 µM (active); in assay [8] it was 8.01 µM (active).
For the compound `CCCCCCNC(=O)O[C@H]1Cn2c(=O)ccc(=O)n2[C@@H]2CN(S(=O)(=O)c3ccc(C)cc3)C[C@]12O`, the half-maximal activity concentration (AC50) in assay [9] is 19.1 µM (active); in [10], 31.5 µM (active); in assay [11], 14.1 µM (active). In addition, in the assay on Vero, the CC50 is 24 µM (active).
For the compound `CC(C(=O)OCC(=O)Nc1ccc(S(=O)(=O)N2CCCCC2)cc1)N1C(=O)c2ccccc2C1=O` (stereo unspecified), in assay [5], the EC50 was 5.44 µM (active).
Same read-out and setting: next, `COc1ccc(OC)c2sc(NC(=O)C3COc4ccccc4O3)nc12` (stereo unspecified): 78 µM (active).
Turning to `C[C@@H]1CN([C@@H](C)CO)C(=O)Cc2cc(NC(=O)Nc3ccc(F)cc3)ccc2O[C@H]1CN(C)CC1CCCCC1`, the concentration at half-maximal activity (AC50) in assay [12] is 7.86 µM (active); in assay [13] it was 10.9 µM (active); at Paired box protein Pax-8, 20.4 µM (active).
As to `CC1CCCCN1C(=O)CSCC(=O)Nc1nc(-c2cccs2)cs1` (stereo unspecified), the EC50 in [5] was 4.06 µM (active).
In the case of `O=C(N/N=C/c1ccc[nH]1)c1ccncc1`, in “cells [14]”, the half-inhibitory concentration (IC50) is 2.28 µM (active).
Take `O=C(OCc1nnc(-c2ccccc2)o1)c1cc(S(=O)(=O)N2CCOCC2)c(Cl)cc1Cl`: in assay [3], the concentration at half-maximal activity (AC50) was 10.8 µM (active).
With `COc1ccc(C2=Nn3c(nnc3-c3ccccc3F)SC2)cc1OC1CCCC1`, the IC50 in [2] was > 20 µM (inactive). The CC50 in assay [7] is 9.04 µM (active). The half-maximal activity concentration (AC50) in assay [15] is 6.06 µM (active).
